Measured values taken from the supplement of paper PMC13380429.

Assays:
Conditions in all cases: 72 h
[1] = test system: U2OS; assay: relative viability EC50 (midpoint between 100% and the lowest measured viability); higher = less toxic
[2] = test system: Calu-3; assay: as above
[3] = test system: Vero E6; assay: as above
[4] = test system: Caco-2; assay: as above
[5] = test system: HepG2; assay: as above
[6] = test system: U2OS; assay: cell viability relative to DMSO; higher = less toxic
[7] = test system: Calu-3; assay: as above
[8] = test system: Vero E6; assay: as above
[9] = test system: Caco-2; assay: as above
[10] = test system: HepG2; assay: as above
[11] = test system: U2OS; assay: drug sensitivity score (DSS) for viability; higher = more toxic; extreme values may be limits of the assay
[12] = test system: Calu-3; assay: as above
[13] = test system: Vero E6; assay: as above
[14] = test system: Caco-2; assay: as above
[15] = test system: HepG2; assay: as above

SMILES	relative viability EC50 [1]	relative viability EC50 [2]	relative viability EC50 [3]	relative viability EC50 [4]	relative viability EC50 [5]	cell viability ([6]; 1 nM)	cell viability ([6]; 10 nM)	cell viability ([6]; 100 nM)	cell viability ([6]; 1000 nM)	cell viability ([6]; 10000 nM)	cell viability ([7]; 1 nM)	cell viability ([7]; 10 nM)	cell viability ([7]; 100 nM)	cell viability ([7]; 1000 nM)	cell viability ([7]; 10000 nM)	cell viability ([8]; 1 nM)	cell viability ([8]; 10 nM)	cell viability ([8]; 100 nM)	cell viability ([8]; 1000 nM)	cell viability ([8]; 10000 nM)	cell viability ([9]; 1 nM)	cell viability ([9]; 10 nM)	cell viability ([9]; 100 nM)	cell viability ([9]; 1000 nM)	cell viability ([9]; 10000 nM)	cell viability ([10]; 1 nM)	cell viability ([10]; 10 nM)	cell viability ([10]; 100 nM)	cell viability ([10]; 1000 nM)	cell viability ([10]; 10000 nM)	drug sensitivity score [11]	drug sensitivity score [12]	drug sensitivity score [13]	drug sensitivity score [14]	drug sensitivity score [15]
C/C(=N\NC(=O)C(NC(=O)c1ccccc1)c1n[nH]c(=O)c2ccccc12)c1cccc(Br)c1 (stereo not given)	> 10 µM	> 10 µM	> 10 µM	> 10 µM	> 10 µM	99.5%	97%	100%	102%	100%	95.7%	113%	100%	107%	108%	88.3%	97.9%	97.4%	100%	104%	101%	102%	106%	95.8%	100%	97.7%	94.2%	98.1%	95.4%	106%	0	0	0	0	0
CC1CCN(CC[C@H]2CCCN2S(=O)(=O)c2cccc(O)c2)CC1	> 10 µM	> 10 µM	> 10 µM	> 10 µM	> 10 µM	94.3%	101%	93.4%	104%	101%	90.1%	94.8%	92.3%	100%	105%	100%	93.5%	96.8%	93.8%	105%	90.4%	86.5%	96.1%	91.5%	102%	91.9%	98.1%	103%	96.7%	101%	0	0	0	0	0
CCOC(=O)Nc1ccc(NCc2c(C)cc(C)cc2C)cc1N	> 10 µM	> 10 µM	> 10 µM	> 10 µM	> 10 µM	95.9%	103%	98.9%	103%	93.1%	110%	110%	97.3%	104%	96.8%	99.4%	96.7%	90.3%	93.3%	99.7%	101%	92.6%	101%	97.4%	99%	99.5%	95.6%	96.5%	92.8%	100%	0	0	0	0	0
CCS(=O)(=O)N1CCN(c2ccc(Nc3ncc(C(N)=O)c(NC4CC4)n3)cc2)CC1	2.04 µM	> 10 µM	> 10 µM	> 10 µM	> 10 µM	95.9%	103%	96.4%	89.8%	27.4%	92.1%	111%	110%	116%	128%	97.4%	94.8%	99.5%	85.6%	89.6%	99.6%	95.4%	91.9%	86.8%	99.1%	97.6%	94.3%	97.3%	76.3%	79.1%	5.7	0	0.3	0	4
CCc1cc(O)c(Oc2ccc(C(N)=O)cc2F)cc1F	> 10 µM	> 10 µM	> 10 µM	> 10 µM	> 10 µM	104%	99.9%	102%	102%	102%	106%	97.8%	95.3%	98.6%	89.3%	102%	98.2%	99.8%	104%	100%	107%	99%	104%	97.9%	101%	110%	94.1%	93%	103%	97.4%	0	0	0	0	0
COc1ccc(Br)cc1S(=O)(=O)NC(=O)/C=C/c1ccccc1Cc1ccc2ccccc2c1	> 10 µM	> 10 µM	> 10 µM	> 10 µM	> 10 µM	99.9%	98.3%	94.4%	98.9%	95.8%	94.2%	106%	88%	86.5%	97.9%	96%	98.6%	95.3%	90.8%	101%	104%	94%	99.1%	97.8%	87.5%	96.4%	96.5%	95.8%	98.9%	102%	0	1.7	0	0.1	0
Cc1cc(-c2cc(O)ccc2Cl)cc2nnc(Nc3ccc(OCCN4CCCC4)cc3)nc12	1.74 µM	2.67 µM	2.69 µM	1.85 µM	2.92 µM	104%	104%	106%	80%	0%	100%	94.8%	101%	93.8%	0.1%	97.8%	100%	96.3%	94%	0%	94%	94.7%	101%	82.5%	0.3%	94.5%	97.3%	106%	96.6%	0%	8.7	6.5	6.4	8.4	6
FC(F)(F)c1ccc(N2CCNCC2)nc1Cl	> 10 µM	> 10 µM	> 10 µM	> 10 µM	> 10 µM	97.4%	99.9%	95.2%	100%	92.7%	96.1%	105%	93.7%	106%	107%	101%	98%	95.9%	95.6%	95.2%	101%	98.5%	107%	104%	96.4%	108%	96.2%	92%	106%	104%	0	0	0	0	0
O=C(Nc1ccc(S(=O)(=O)Nc2ccccc2Cl)c(Cl)c1)c1ccccn1	> 10 µM	> 10 µM	> 10 µM	> 10 µM	> 10 µM	94.8%	93.7%	103%	97.8%	98.6%	108%	91.9%	89.8%	87.3%	98.2%	91.6%	96.7%	93.6%	101%	105%	95.7%	88.6%	104%	101%	89.8%	99.3%	99.8%	91.4%	101%	103%	0	1.8	0	0	0
O=C(Nc1cccnn1)N1CCC(=Cc2cccc(Oc3ccc(C(F)(F)F)cn3)c2)CC1	> 10 µM	> 10 µM	> 10 µM	> 10 µM	2.33 µM	94.3%	96.2%	96.3%	97.9%	91.2%	104%	95.3%	92%	95.3%	84.9%	96.1%	93.3%	93.2%	87.3%	96.1%	100%	104%	102%	96.4%	81.4%	99.9%	97.5%	106%	93.3%	34.1%	0	0.2	0	0.9	4.7
O=C(Nc1cnc(Cl)nc1)c1ccc(F)c(F)c1	> 10 µM	> 10 µM	> 10 µM	> 10 µM	> 10 µM	102%	95.1%	95.6%	98%	98.9%	98.5%	98.9%	90.7%	95.5%	103%	94.5%	92.1%	99.4%	96.9%	95.4%	101%	96.7%	95%	95.5%	93.8%	96.5%	96.9%	97.7%	96.5%	93.3%	0	0	0	0	0
C[C@@H]1c2ccccc2CN1CC1=NCCN1 (racemic)	> 10 µM	> 10 µM	> 10 µM	> 10 µM	> 10 µM	97.4%	94.8%	101%	96.3%	104%	107%	96.5%	102%	108%	114%	95.9%	97.8%	95.4%	92.9%	102%	100%	92.4%	89.9%	100%	121%	100%	86.9%	109%	116%	116%	0	0	0	0	0
O=C(NCc1ccc(F)cc1)N1CCN2C(=O)OC(c3ccccc3)(c3ccccc3)[C@@H]2C1 (racemic) [SHA-68]	> 10 µM	> 10 µM	> 10 µM	> 10 µM	> 10 µM	101%	95.6%	100%	96.6%	96.8%	99.7%	110%	104%	100%	97.2%	97.1%	96.8%	98.3%	102%	100%	101%	101%	89.1%	93.6%	85%	100%	102%	98%	107%	110%	0	0	0	0.5	0
CCS(=O)(=O)N(C)[C@@H]1c2cc(C#N)ccc2OC(C)(C)[C@H]1O.CCS(=O)(=O)N(C)[C@H]1c2cc(C#N)ccc2OC(C)(C)[C@@H]1O (racemic) [chromanol-(+/-)]	> 10 µM	> 10 µM	> 10 µM	> 10 µM	> 10 µM	100%	96.9%	102%	96.2%	102%	103%	99.8%	92.5%	102%	97.5%	101%	102%	101%	103%	95.6%	90.9%	89.9%	100%	106%	93.5%	106%	105%	100%	96.7%	94.6%	0	0	0	0	0
